Measurements from patent US20090042726A1, “Novel Herbicides” (SYNGENTA LIMITED, priority 2005, published 2009).

Tested on: Monocotyledonous and dicotyledonous test plants
Assay: Herbicidal action, application pre-emergence (Example B1)
Format: in vivo
Design: key: 10=total damage to plant; 0=no damage to plant
Settings: 1000 g/ha, evaluated after 9 or 13 days; for AGSTE herbicidal action (damage score 0-10): Agrostis-tenius; for AMARE herbicidal action (damage score 0-10): Amaranthus retroflexus; for DIGSA herbicidal action (damage score 0-10): Digitaria sanguinalis; for POATR herbicidal action (damage score 0-10): Poa trivialis; for SETIT herbicidal action (damage score 0-10): Setaria italica
Procedure: Monocotyledonous and dicotyledonous test plants were sown in sterilised standard soil in seed trays each having 96 cells. After one day (pre-emergence) under controlled conditions in a climatic chamber (cultivation at 23/17° C., day/night; 13 hours light; 50-60% humidity; after application at 24/19° C., day/night), the plants were treated with an aqueous spray solution of 1000 mg/l of the active ingredient used (including 10% DMSO as solvent). The plants were grown on in the climatic chamber until the test was evaluated (10=total damage to plant, 0=no damage to plant) after 9 or 13 days.

Compound | AGSTE herbicidal action (damage score 0-10) | AMARE herbicidal action (damage score 0-10) | DIGSA herbicidal action (damage score 0-10) | POATR herbicidal action (damage score 0-10) | SETIT herbicidal action (damage score 0-10)
Cn1nc(C(F)(F)F)c(C[S+]([O-])C2=NOC(C)(C)C2F)c1OC(F)F (single isomer, unassigned) [2.25] | 10 | 10 | 10 | 10 | 10
Cn1nc(OC(F)F)c(C[S+]([O-])C2=NOC(C)(C)C2F)c1C(F)(F)F (single isomer, unassigned) [2.29] | 9 | 8 | 0 | 10 | 9
Cn1nc(OC(F)F)c(C[S+]([O-])C2=NOC(C)(C)C2F)c1C(F)(F)F (single isomer, unassigned) [2.30] | 10 | 9 | 10 | 9 | 9
Cn1nc(OCC(F)(F)F)c(C[S+]([O-])C2=NOC(C)(C)C2F)c1C(F)(F)F (single isomer, unassigned) [2.42] | 0 | 8 | 8 | 8 | 8
Cn1nc(OCC(F)(F)F)c(C[S+]([O-])C2=NOC(C)(C)C2F)c1C(F)(F)F (single isomer, unassigned) [2.43] | 0 | 8 | 9 | 10 | 8
Cc1nn(C)c(OCC(F)(F)F)c1C[S+]([O-])C1=NOC(C)(C)C1F (single isomer, unassigned) [2.61] | 10 | 6 | 9 | 4 | 
Cn1nc(C[S+]([O-])C2=NOC(C)(C)C2F)c(C(F)(F)F)c1C#N (single isomer, unassigned) [4.07] | 10 | 9 | 9 | 10 | 
Cn1nc(C[S+]([O-])C2=NOC(C)(C)C2F)c(C(F)(F)F)c1C#N (single isomer, unassigned) [4.08] | 10 | 5 | 9 | 8 | 
Cc1nn(C)nc1C[S+]([O-])C1=NOC(C)(C)C1F (single isomer, unassigned) [7.02] | 10 | 0 | 9 | 10 | 9
Cc1nn(C)nc1C[S+]([O-])C1=NOC(C)(C)C1F (single isomer, unassigned) [7.03] | 8 | 6 | 10 | 10 | 9
C=CCn1nc(C[S+]([O-])C2=NOC(C)(C)C2F)c(C(F)(F)F)n1 (single isomer, unassigned) [7.08] | 10 | 10 | 10 | 10 | 
C=CCn1nc(C[S+]([O-])C2=NOC(C)(C)C2F)c(C(F)(F)F)n1 (single isomer, unassigned) [7.09] | 10 | 10 | 10 | 10 | 
CC1(C)ON=C([S+]([O-])Cc2nn(C3CCCC3)nc2C(F)(F)F)C1F (single isomer, unassigned) [7.12] | 10 | 10 | 9 | 10 | 
CC(C)n1nc(C[S+]([O-])C2=NOC(C)(C)C2F)c(C(F)(F)F)n1 (single isomer, unassigned) [7.25] | 10 | 9 | 9 | 10 | 
CC(C)n1nc(C[S+]([O-])C2=NOC(C)(C)C2F)c(C(F)(F)F)n1 (single isomer, unassigned) [7.26] | 9 | 0 | 5 | 6 | 
Cc1nc(C[S+]([O-])C2=NOC(C)(C)C2F)n(C)n1 (single isomer, unassigned) [8.02] | 10 | 4 | 10 | 10 | 
Cc1nc(C[S+]([O-])C2=NOC(C)(C)C2F)n(C)n1 (single isomer, unassigned) [8.03] | 10 | 0 | 9 | 8 | 

Compound | AGSTE herbicidal action (damage score 0-10) | AMARE herbicidal action (damage score 0-10) | DIGSA herbicidal action (damage score 0-10) | POATR herbicidal action (damage score 0-10) | SETIT herbicidal action (damage score 0-10)
CC1(C)ON=C(S(=O)(=O)Cc2ccccc2OC(F)(F)F)C1F (stereo not shown) [1.11] | 10 | 7 | 10 | 10 | 8
CC1(C)ON=C(S(=O)(=O)Cc2c(F)cccc2F)C1F (stereo not shown) [1.17] | 10 | 10 | 8 | 10 | 8
Cn1nc(C(F)(F)F)c(CS(=O)(=O)C2=NOC(C)(C)C2F)c1OCC(F)(F)F (stereo not shown) [2.11] | 10 | 10 | 9 | 10 | 4
Cn1nc(C(F)(F)F)c(CS(=O)(=O)C2=NOC(C)(C)C2Cl)c1OC(F)F (stereo not shown) [2.18] | 10 | 8 | 5 | 9 | 8
Cn1nc(C(F)(F)F)c(C[S+]([O-])C2=NOC(C)(C)C2(Cl)Cl)c1OCC(F)(F)F (stereo not shown) [2.20] | 5 | 4 | 9 | 8 | 7
Cn1nc(OC(F)F)c(CS(=O)(=O)C2=NOC(C)(C)C2F)c1C(F)(F)F (stereo not shown) [2.31] | 10 | 10 | 10 | 10 | 10
Cn1cc(CS(=O)(=O)C2=NOC(C)(C)C2F)c(C(F)(F)F)n1 (stereo not shown) [2.34] | 10 | 10 | 10 | 10 | 9
Cn1nc(OCC(F)(F)F)c(CS(=O)(=O)C2=NOC(C)(C)C2F)c1C(F)(F)F (stereo not shown) [2.44] | 0 | 10 | 7 | 10 | 10
CCn1cc(CS(=O)(=O)C2=NOC(C)(C)C2F)c(C(F)(F)F)n1 (stereo not shown) [2.47] | 10 | 10 | 9 | 10 | 
C#CCn1cc(CS(=O)(=O)C2=NOC(C)(C)C2F)c(C(F)(F)F)n1 (stereo not shown) [2.50] | 10 | 10 | 10 | 10 | 
C=CCn1cc(CS(=O)(=O)C2=NOC(C)(C)C2F)c(C(F)(F)F)n1 (stereo not shown) [2.53] | 10 | 10 | 9 | 10 | 
Cn1nc(C(F)(F)F)c(CS(=O)(=O)C2=NOC(C)(C)C2F)c1F (stereo not shown) [2.56] | 10 | 10 | 10 | 10 | 
COCCOc1c(CS(=O)(=O)C2=NOC(C)(C)C2F)c(C(F)(F)F)nn1C (stereo not shown) [2.59] | 10 | 10 | 10 | 10 | 
Cc1nn(C)c(OCC(F)(F)F)c1CS(=O)(=O)C1=NOC(C)(C)C1F (stereo not shown) [2.63] | 10 | 10 | 8 | 10 | 
Cc1nc(C(F)(F)F)ccc1CS(=O)(=O)C1=NOC(C)(C)C1F (stereo not shown) [3.03] | 10 | 10 | 0 | 10 | 9
CC1(C)ON=C(S(=O)(=O)Cc2cccnc2Cl)C1F (stereo not shown) [3.06] | 10 | 8 | 0 | 10 | 
